Data reported in ChEMBL document CHEMBL3507680, “University of Dundee, Gates Library screen for HepG2 cell viability”.

Experiment: Human HepG2 cell viability assay in 384 well format
Assay type: toxicity, cell-based
Parameters: dose 125 nL, time 70.5 hour; concentration not given beside the values
Conditions: HepG2 cells, read-out: Inhibition

**Q.** Which cytotoxicity at 70.5 h does the source give for `O=C(c1ccnnc1)N1CC[C@@H](O)[C@@H]1Cc1ccccc1` here?
**A.** -9.3%

**Q.** Which cytotoxicity at 70.5 h does the source give for `CC(C)CN1C(=O)CO[C@@H]2CN(C(=O)NC(C)C)C[C@H]21` here?
**A.** -2.72%

**Q.** For `c1cnc(N2CCC3(CCN(Cc4ccncc4)CC3)CC2)nc1`, which cytotoxicity at 70.5 h is on record?
**A.** -15.7%

**Q.** For `CCOCC(O)CN1CCN(C(=O)c2cc(C)ccc2OC)CC1` (configuration not stated), which cytotoxicity at 70.5 h is on record?
**A.** -5.99%

**Q.** Which cytotoxicity at 70.5 h does the source give for `CN1C(=O)C(c2cccnc2)CC12CCN(Cc1nccs1)CC2` (configuration not stated) here?
**A.** 1.71%

**Q.** Which cytotoxicity at 70.5 h does the source give for `CC(C)n1cc(CN2CCCN(C(=O)c3ccco3)CC2)cn1` here?
**A.** 21%

**Q.** Which cytotoxicity at 70.5 h does the source give for `Cc1nnc(CN2CCC(Oc3ccc(F)cc3)CC2)o1` here?
**A.** 0.0555%

**Q.** With `NCc1ccccc1Sc1ccc(O)cc1` as the compound, how does the cytotoxicity at 70.5 h read?
**A.** -8.8%

**Q.** With `O=C(c1ccoc1)N1CC[C@@H]2O[C@H](COCc3ccccn3)CC[C@@H]21` as the compound, how does the cytotoxicity at 70.5 h read?
**A.** -11.6%

**Q.** Which cytotoxicity at 70.5 h does the source give for `O=C1N(Cc2ccc(F)c(F)c2)CCCC12CCN(C1CCSCC1)C2` (configuration not stated) here?
**A.** 9.34%

**Q.** Which cytotoxicity at 70.5 h does the source give for `Cc1nn(CC(=O)N2CCN(Cc3cccnc3)CC2)c(C)c1Cl` here?
**A.** -10.2%

**Q.** With `COc1c(F)cc(NC(=O)NCc2nncn2C2CC2)cc1F` as the compound, how does the cytotoxicity at 70.5 h read?
**A.** 0.912%

**Q.** With `Cc1csc(N2CCCN(C(=O)Cc3ccc(C)s3)CC2)n1` as the compound, how does the cytotoxicity at 70.5 h read?
**A.** 16.1%

**Q.** Which cytotoxicity at 70.5 h does the source give for `Cc1ccc(N2CCO[C@H]3CN(Cc4cccnc4)C[C@H]32)nn1` here?
**A.** 12.6%

**Q.** Which cytotoxicity at 70.5 h does the source give for `COc1ccccc1OCc1cc(C(=O)N2C[C@H](O)[C@@H](N(C)C)C2)n[nH]1` here?
**A.** -4.57%

**Q.** With `CCN(Cc1nc2c(cnn2C)c(=O)[nH]1)Cc1ccccc1C` as the compound, how does the cytotoxicity at 70.5 h read?
**A.** 1.06%

**Q.** Which cytotoxicity at 70.5 h does the source give for `O=C1COC2(CCN(Cc3ccoc3)CC2)CN1c1ccsc1` here?
**A.** -15.9%

**Q.** For `Cc1nn(C)c(C)c1C1CCCN1Cc1nc2ccccc2c(=O)[nH]1` (configuration not stated), which cytotoxicity at 70.5 h is on record?
**A.** -0.414%

**Q.** For `C[C@@H]1C[C@@H]2CCN(C(=O)c3ccncn3)C[C@H]2O1`, which cytotoxicity at 70.5 h is on record?
**A.** -7.65%

**Q.** For `Cc1cnc2n(c1=O)C(CC(=O)NCc1ccc(Cl)cc1)CS2` (configuration not stated), which cytotoxicity at 70.5 h is on record?
**A.** -5.3%

**Q.** For `CC(C)N1CCC(c2cc(C(F)(F)F)n3ccnc3n2)CC1`, which cytotoxicity at 70.5 h is on record?
**A.** 12.6%

**Q.** With `Cc1cc(C(=O)Nc2ccc3oc(=O)n(CCN(C)C)c3c2)c(C)o1` as the compound, how does the cytotoxicity at 70.5 h read?
**A.** 9.45%

**Q.** With `CCc1nc(CCNC(=O)NC2CC2)sc1C` as the compound, how does the cytotoxicity at 70.5 h read?
**A.** 5.49%

**Q.** Which cytotoxicity at 70.5 h does the source give for `Cn1ccc(C(=O)NCc2cccc(N3CCCCC3=O)c2)cc1=O` here?
**A.** -4.99%

**Q.** For `COCCCC1CCCCN1Cc1cnn(C)c1C1CC1` (configuration not stated), which cytotoxicity at 70.5 h is on record?
**A.** -2.6%

**Q.** With `CNc1ncc(C(=O)N2CCCC(Cc3ccccc3OC)C2)s1` (configuration not stated) as the compound, how does the cytotoxicity at 70.5 h read?
**A.** 20.4%

**Q.** With `CCc1ccc(-c2c(C)c(-c3cnn(C)c3)nc(N)c2C#N)o1` as the compound, how does the cytotoxicity at 70.5 h read?
**A.** -6.72%

**Q.** For `O=C(NCCCNC(=O)C1CCC1)NCCn1cccc1`, which cytotoxicity at 70.5 h is on record?
**A.** -5.85%

**Q.** For `CN(Cc1cn2c(n1)CN(C(=O)c1cccnc1)CC2)Cc1ccco1`, which cytotoxicity at 70.5 h is on record?
**A.** -2.78%

**Q.** Which cytotoxicity at 70.5 h does the source give for `CSCc1cccc(S(=O)(=O)Nc2cc(C)on2)c1` here?
**A.** 3.33%

**Q.** With `Cc1cc(N2CCCN(C(C(=O)O)c3cccc(C)c3F)CC2)ccn1` (configuration not stated) as the compound, how does the cytotoxicity at 70.5 h read?
**A.** 3.14%

**Q.** With `CC(C)n1cnnc1CN(C)C(=O)c1cc(COc2ccccc2)[nH]n1` as the compound, how does the cytotoxicity at 70.5 h read?
**A.** 2.63%

**Q.** With `CNC(=O)COc1ccccc1CNC1CCc2ncnn2C1` (configuration not stated) as the compound, how does the cytotoxicity at 70.5 h read?
**A.** 29.2%

**Q.** For `COC(=O)c1ccc(N2CCC(C(O)c3ccccc3)CC2)nn1` (configuration not stated), which cytotoxicity at 70.5 h is on record?
**A.** -4.29%

**Q.** Which cytotoxicity at 70.5 h does the source give for `CCn1nc(C)c(NC(=O)C(C)C)c1C` here?
**A.** -2.76%

**Q.** With `CCOc1ncccc1C(=O)N1CCCC1Cn1nc(C)cc1C` (configuration not stated) as the compound, how does the cytotoxicity at 70.5 h read?
**A.** 5.47%

**Q.** With `CNC(=O)NC(=O)CSC(C)c1ccccc1F` (configuration not stated) as the compound, how does the cytotoxicity at 70.5 h read?
**A.** -15.4%

**Q.** Which cytotoxicity at 70.5 h does the source give for `C[C@@H]1CN(Cc2nc(C(N)=O)no2)CC[C@@]1(O)C1CC1` here?
**A.** -14.8%

**Q.** Which cytotoxicity at 70.5 h does the source give for `O=C([C@@H]1COC[C@H]2CN(c3ccncn3)C[C@H]21)N1CCCC1` here?
**A.** 10.6%

**Q.** For `O=C(NCCn1cccc1)C1CCCOC1` (configuration not stated), which cytotoxicity at 70.5 h is on record?
**A.** -5.7%

**Q.** For `COc1ccccc1N1CCCC(NC(=O)Nc2cccnc2)C1` (configuration not stated), which cytotoxicity at 70.5 h is on record?
**A.** 8.99%

**Q.** For `CC(NC(=O)NCc1c(F)cccc1Cl)(C(=O)O)c1ccco1` (configuration not stated), which cytotoxicity at 70.5 h is on record?
**A.** -8.24%

**Q.** With `Cc1ncc(C(=O)N2CCC(N3C[C@@H](C)O[C@@H](C)C3)CC2)c(=O)[nH]1` as the compound, how does the cytotoxicity at 70.5 h read?
**A.** 8.83%

**Q.** With `COc1ccc(OC)c(C(C)NS(=O)(=O)c2cn(C)nc2C)c1` (configuration not stated) as the compound, how does the cytotoxicity at 70.5 h read?
**A.** -3.29%

**Q.** With `CCCc1nnsc1C(=O)NCC1CCN(C(=O)c2ccncc2)CC1` as the compound, how does the cytotoxicity at 70.5 h read?
**A.** 25.7%

**Q.** Which cytotoxicity at 70.5 h does the source give for `Cn1ccnc1-c1nccn1-c1cccc(CN2CCCC2)c1` here?
**A.** 2.21%

**Q.** Which cytotoxicity at 70.5 h does the source give for `COCCN(Cc1nccs1)C(=O)c1cc(-c2ccc(C)s2)n[nH]1` here?
**A.** -5.54%

**Q.** With `CCOc1ccc(Cl)c(C(=O)N2CCN(CCO)CC2)n1` as the compound, how does the cytotoxicity at 70.5 h read?
**A.** -6.15%

**Q.** With `Cc1[nH]ncc1CCCNC(=O)N1CCOC(C)C1` (configuration not stated) as the compound, how does the cytotoxicity at 70.5 h read?
**A.** -5.97%

**Q.** With `O=C1OCCCN1Cc1nc(-c2ccncc2)no1` as the compound, how does the cytotoxicity at 70.5 h read?
**A.** -12.6%

**Q.** For `O=C(NC[C@H]1OC[C@@H](NC(=O)C2CCCC2)[C@@H]1O)c1ccncc1`, which cytotoxicity at 70.5 h is on record?
**A.** 13.7%

**Q.** For `CN(CCCN1CCCC1)[C@@H]1c2ccccc2C2(CCNCC2)[C@H]1O`, which cytotoxicity at 70.5 h is on record?
**A.** 14.4%

**Q.** With `CCc1ccc(S(=O)(=O)N2CC[C@@](O)(CCOC)[C@H](C)C2)cc1` as the compound, how does the cytotoxicity at 70.5 h read?
**A.** -10.2%

**Q.** With `Cc1cccc(CN2CCCC23CCNC3)n1` (configuration not stated) as the compound, how does the cytotoxicity at 70.5 h read?
**A.** 24.8%

**Q.** With `O=C(CN1CCCCC1)N1CCC(c2cc(=O)n3c(n2)CCCCC3)C1` (configuration not stated) as the compound, how does the cytotoxicity at 70.5 h read?
**A.** -1.74%

**Q.** For `CN(C)Cc1ccnc(C2CN(Cc3c(F)cccc3F)CCO2)n1` (configuration not stated), which cytotoxicity at 70.5 h is on record?
**A.** -6.34%

**Q.** With `O=C(c1cc(COc2ccc3c(c2)OCO3)[nH]n1)N1CCCO1` as the compound, how does the cytotoxicity at 70.5 h read?
**A.** -2.52%

**Q.** For `CCn1cc(S(=O)(=O)NC2CCCC2)cn1`, which cytotoxicity at 70.5 h is on record?
**A.** -11.8%

**Q.** Which cytotoxicity at 70.5 h does the source give for `CNc1cc(CCNS(=O)(=O)c2ccccc2)nc(-c2ccccn2)n1` here?
**A.** -14.6%

**Q.** Which cytotoxicity at 70.5 h does the source give for `CN1CC2(CCN(C(=O)CCCOCc3ccccc3)C2)OC1=O` (configuration not stated) here?
**A.** -11.2%

**Q.** For `Cc1ccc(NC(=O)c2ncc(C(N)=O)cc2Cl)cc1F`, which cytotoxicity at 70.5 h is on record?
**A.** -87.6%

**Q.** For `CC(C)c1cc(CN2CCC(N)CC2)no1`, which cytotoxicity at 70.5 h is on record?
**A.** -6.06%

**Q.** For `CC(C)N1CCC(NC(=O)NCc2cccnc2)C1` (configuration not stated), which cytotoxicity at 70.5 h is on record?
**A.** -1.38%

**Q.** For `O=C(c1cnccn1)N1CCn2cnc(COCC3CC3)c2C1`, which cytotoxicity at 70.5 h is on record?
**A.** 14.8%

**Q.** With `COc1cc(C(F)(F)F)sc1C(=O)O` as the compound, how does the cytotoxicity at 70.5 h read?
**A.** -6.37%

**Q.** Which cytotoxicity at 70.5 h does the source give for `Cc1cnn(CC(=O)NCC2(O)CCCc3ccccc32)c1` (configuration not stated) here?
**A.** 2.95%

**Q.** With `CCN(CC)C(CNC(=O)CCc1nc(C(C)C)no1)c1ccco1` (configuration not stated) as the compound, how does the cytotoxicity at 70.5 h read?
**A.** -2.56%

**Q.** For `COc1ccc(CN2CCn3cncc3C2)cc1Cn1cncn1`, which cytotoxicity at 70.5 h is on record?
**A.** -5.89%

**Q.** With `O=C(NCCc1ccccn1)NC1CCN(c2ccccc2)C1=O` (configuration not stated) as the compound, how does the cytotoxicity at 70.5 h read?
**A.** 1.75%

**Q.** For `CC(C)Oc1cccc(C(O)CNC(=O)NCc2cccs2)c1` (configuration not stated), which cytotoxicity at 70.5 h is on record?
**A.** 3.68%

**Q.** Which cytotoxicity at 70.5 h does the source give for `CC(C)C(=O)NC1CC2(CCN(CC(=O)N(C)C)CC2)c2ccccc21` (configuration not stated) here?
**A.** -2.53%

**Q.** Which cytotoxicity at 70.5 h does the source give for `Cc1cnc(CN2CCCCC2c2nc(-c3ccccc3)no2)cn1` (configuration not stated) here?
**A.** -7.59%

**Q.** Which cytotoxicity at 70.5 h does the source give for `CC(C)(C)n1cc(C2=CCN(CCNC(N)=O)CC2)cn1` here?
**A.** -0.0754%

**Q.** With `CC1CN(C(=O)CN(Cc2ccccc2Cl)C2CCCC2)CCO1` (configuration not stated) as the compound, how does the cytotoxicity at 70.5 h read?
**A.** 6.53%

**Q.** With `c1nc2c(c(C3CC3)n1)CCN(Cc1ccoc1)CC2` as the compound, how does the cytotoxicity at 70.5 h read?
**A.** 18.1%

**Q.** For `CCN(Cc1c(C)nn(CC)c1C)S(=O)(=O)c1cnn(C)c1`, which cytotoxicity at 70.5 h is on record?
**A.** -6%

**Q.** For `CN(CC(N)=O)Cc1ccc(F)cc1Cl`, which cytotoxicity at 70.5 h is on record?
**A.** -5.08%

**Q.** Which cytotoxicity at 70.5 h does the source give for `Cc1nn(C)c(C)c1C1CCCN1CCCc1nc2ccccc2o1` (configuration not stated) here?
**A.** -8.55%

**Q.** With `CCCn1nnnc1COc1ccc(C(=O)OC)cc1` as the compound, how does the cytotoxicity at 70.5 h read?
**A.** -11.5%

**Q.** With `NC(=O)[C@H]1CCCN(c2nccc(-c3c[nH]nc3-c3cccnc3)n2)C1` as the compound, how does the cytotoxicity at 70.5 h read?
**A.** -2.79%

**Q.** For `COc1cccc(CN2CCCC(c3cc(C(N)=O)[nH]n3)C2)c1` (configuration not stated), which cytotoxicity at 70.5 h is on record?
**A.** -12.6%

**Q.** With `O=C(Nc1ccccc1OC1CCOC1)c1ccon1` (configuration not stated) as the compound, how does the cytotoxicity at 70.5 h read?
**A.** -1.12%
